{
  "source": "patent US8101389B2",
  "about": "“Bacterial glutamine synthetases and methods of use” (Athenix Corp, priority 2006, dated 2012)",
  "key": {"[1]": {"tested_on": "ags1 glutamine synthetase enzyme", "test": "Enzymatic activity of purified 6Xhis-tagged glutamine synthetases with and without glufosinate", "assay_type": "biochemical, Serratia marcescens", "settings": "100 uM glufosinate", "description": "ags1m1 (pAX3421) and ags1m2 (pAX3422) were subcloned into E. coli expression vector pRSF1B (Invitrogen) so as to create an N-terminus encoding a 6Xhis tag, purified and characterized kinetically."}, "[2]": {"tested_on": "E. coli DH5α cells with TKH3", "test": "growth of DH5α with TKH3 on M63 minimal plates with glufosinate", "assay_type": "cell-based", "settings": "20 mM glufosinate", "procedure": "(§1) To obtain the gene(s) responsible for the strain's resistance to glufosinate, a small insert plasmid genomic library was prepared from strain ATX 20345. Genomic DNA was extracted from a fresh, overnight LB culture using SDS, proteinase K cell lysis followed by CTAB/NaCl, phenol-chloroform extractions. Partial digests were performed on the genomic DNA using 0.1 units Sau3A I at 37° C. for 30 minutes followed by the addition of EDTA and incubation at 65° C. for 20 minutes to halt the reaction. Resultant DNA was approximately 4-12 kb in size. The DNA was gel purified, treated with T4 polynucletide kinase, then ligated into BamH I digested pUC18 vector. Ligations were transformed into DH5a and plated directly on M63 minimal media plates containing 20 mM glufosinate, 100 μg/ml carbenicillin, and 0.1 mM IPTG. After several days, 4 colonies had appeared, tentatively named TKH1-4. They were grown up and plasmid DNA was isolated and analyzed by digestion with EcoR I+ Hind III, and Pst I/Sac Ito compare inserts. Though all four clones contained inserts, TKH2 and TKH3 were identical by restriction digest analysis, and both contained inserts of approximately 4.9 kb.\n(§2) To reconfirm that TKH2 and TKH3 confer resistance to 20 mM glufosinate, the purified plasmids were retransformed into DH5α cells. pUC18 was retransformed as a negative control. […]"}, "[3]": {"target": "Serratia marcescens glutamine synthetase AGS1 variant AGS1m17(AD-), F81S, P185S, H212T, V214A, G218S, I303N plus tyrosine 398 to phenylalanine, SEQ ID NO:46 (Serratia marcescens, UniProt A0A0F6KS08, F81S/G218S/H212T/I303N/P185S/V214A/Y398F)", "sequence (A0A0F6KS08 whole entry F81S/P185S/H212T/V214A/G218S/I303N/Y398F)": "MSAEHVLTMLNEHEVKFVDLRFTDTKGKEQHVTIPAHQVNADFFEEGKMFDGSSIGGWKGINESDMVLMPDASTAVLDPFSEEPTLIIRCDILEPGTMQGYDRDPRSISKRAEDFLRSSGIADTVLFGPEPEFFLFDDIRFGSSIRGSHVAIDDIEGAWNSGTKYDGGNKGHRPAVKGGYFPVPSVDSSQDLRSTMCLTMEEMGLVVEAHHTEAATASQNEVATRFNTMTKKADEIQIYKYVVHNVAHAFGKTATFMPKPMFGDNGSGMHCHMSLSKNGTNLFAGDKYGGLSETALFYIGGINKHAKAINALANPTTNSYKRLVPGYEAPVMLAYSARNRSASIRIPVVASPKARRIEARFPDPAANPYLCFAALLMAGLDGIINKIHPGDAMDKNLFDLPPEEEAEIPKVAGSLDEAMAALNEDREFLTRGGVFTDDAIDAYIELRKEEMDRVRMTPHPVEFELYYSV", "test": "enzymatic assay, kinetics of AGS1m17(AD-)", "assay_type": "biochemical", "procedure": "ags1m17(ad-) (SEQ ID NO:45) encoding the AGS1m17(AD-) protein (SEQ ID NO:46), is a variant of ags1m17 in which the putative adenylylation site has been removed by mutating the tyrosine at position 398 of AGS1 to a phenylalanine by site directed mutagenesis.\nThe unmodified enzyme (AGS1) was compared to AGS1(AD-) and AGS1m17(AD-) by carrying out enzymatic assays on both enzymes following purification from E. coli. A glutamine synthetase enzyme from E. coli (GlnA) was also tested."}, "[4]": {"tested_on": "Serratia marcescens ATX 20345", "test": "growth of strain ATX 20345 in glufosinate", "assay_type": "cell-based", "settings": "minimal medium; growth above 50 mM was not tested", "procedure": "A glufosinate resistant bacterial strain (ATX 20345) was isolated from a soil sample via a soil suspension by placing approximately 0.01 grams soil in 500 μl sterile water. The soil suspension was vortexed, and 20 μl was used to inoculate a 2.5 ml minimal medium culture supplemented with 5 mM glufosinate (Riedel-de Habël, available through Sigma-Aldrich, St. Louis, Mo.). The minimal medium contains the following ingredients (per 1 liter): 10 grams sucrose, 1 ml 0.8M MgSO4, 1 ml 0.1M CaCl2, 1 ml trace elements, 2.38 grams KH2PO4, 5.64 grams K2HPO4. The pH is adjusted to 7.0, and the solution is sterilized with a 0.2 μm filter. Trace elements consist of (per 100 ml) 0.1 g FeSO4.7H2O, 0.5 mg CuSO4.5H2O, 1.0 mg H3BO3, 1.0 mg MnSO4.5H2O, 7.0 mg ZnSO4.7H2O, 1.0 mg MoO3, 4.0 g KCl. No additional nitrogen source was provided in the medium. Cultures were grown at 21° C. on a rotary shaker for 3 days then transferred to fresh minimal medium containing 5 mM glufosinate and incubated at 21° C. After 2 days, the cultures were used to inoculate fresh minimal medium with 5 mM glufosinate. After 2 days, the cultures were plated onto Luria Bertani (LB) agar and then restruck for isolation. […] Colonies on LB agar are pinkish-red, raised, circular, and 1-2 mm in diameter. ATX20345 was typed by fatty acid analysis (as known in the art), and determined to be a strain of Serratia marcescens. […]"}, "[5]": {"tested_on": "E. coli cells with AGS1 variant AGS1m19, F81S, P185S, H212S, V214A, G218S, I303N, SEQ ID NO:38", "test": "growth of E. coli on glufosinate plates, ags1m19", "assay_type": "cell-based", "procedure": "Clones expressing AGS1m17, AGS1m18, AGS1m19, or AGS1m20 were all found to be able to grow on plates containing 375 mM glufosinate, whereas no growth of clones expressing AGS1m16 was observed on plates containing 375 mM glufosinate."}, "[6]": {"tested_on": "E. coli DH5α cells with TKH2", "test": "growth of DH5α with TKH2 on M63 minimal plates with glufosinate", "assay_type": "cell-based", "settings": "20 mM glufosinate", "procedure": "as §1, §2"}},
  "data": [
    {"smiles": "CP(=O)(O)CCC(N)C(=O)O", "note": "(stereo not shown) [glufosinate]", "values": [
      {"measurement": "inhibition of wild type ags1 glutamine synthetase enzyme", "setting": "[1]", "result": "completely inhibited"},
      {"measurement": "growth in the presence of glufosinate", "setting": "[2]", "result": "grew in the presence of glufosinate"},
      {"measurement": "Ki", "setting": "[3]", "result": 23, "unit": "mM"},
      {"measurement": "(Kcat*Ki)/Km", "setting": "[3]; Table 5, Km glutamate, Ki glufosinate", "result": 110.04},
      {"measurement": "glufosinate concentration through which ATX 20345 grows well", "setting": "[4]", "result": "≥ 50", "unit": "mM"},
      {"measurement": "growth on plates containing 375 mM glufosinate", "setting": "[5]", "result": "able to grow"},
      {"measurement": "growth in the presence of glufosinate", "setting": "[6]", "result": "grew in the presence of glufosinate"}
    ]}
  ]
}
